Experimental data reported in US20120129831A1, “Substituted 3-(1,2,4-Oxadiazol-5-yl)-5-Phenylpiperidines” (BAYER PHARMA AKTIENGESELLSCHAFT, priority 2009, published 2012).
pIC50: −log10 of the molar value.

Biological target: T1, human protease activated receptor 1 (PAR-1) (Homo sapiens, UniProt P25116)
T1 construct: the cell stably expresses the endogenous human PAR-1 receptor and the endogenous purinergic receptor P2Y2; endogenous in cells; host or cells: HEK293-derived recombinant cell line; only the mitochondrial aequorin is recombinant
T1 sequence (P25116 22-425): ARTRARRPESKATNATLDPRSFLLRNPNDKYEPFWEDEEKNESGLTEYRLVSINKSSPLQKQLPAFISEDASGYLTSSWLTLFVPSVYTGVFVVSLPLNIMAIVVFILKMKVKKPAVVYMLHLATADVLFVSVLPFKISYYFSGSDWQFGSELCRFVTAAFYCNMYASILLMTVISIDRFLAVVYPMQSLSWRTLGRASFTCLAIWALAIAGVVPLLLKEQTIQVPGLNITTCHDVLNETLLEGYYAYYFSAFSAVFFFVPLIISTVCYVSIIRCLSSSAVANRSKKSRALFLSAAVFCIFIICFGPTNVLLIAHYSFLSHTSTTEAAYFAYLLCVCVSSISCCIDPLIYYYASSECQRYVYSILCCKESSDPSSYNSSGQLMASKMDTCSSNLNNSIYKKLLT
Assay: Cellular functional in vitro test (aequorin luminescence, PAR-1 antagonism)
Type: cell-based
Details: recombinant HEK293 aequorin cell line, endogenous human PAR-1; PAR-1 agonist at EC50; calcium luminescence
Source text: A recombinant cell line is used to identify antagonists of the human protease activated receptor 1 (PAR-1) and to quantify the activity of the substances described herein. The cell is originally derived from a human embryonal kidney cell (HEK293; ATCC: American Type Culture Collection, Manassas, Va. 20108, USA). The test cell line constitutively expresses a modified form of the calcium-sensitive photoprotein aequorin which, after reconstitution with the cofactor coelenterazine, emits light when the free calcium concentration in the inner mitochondrial compartment is increased (Rizzuto R, Simpson A W, Brini M, Pozzan T.; Nature 1992, 358, 325-327). Additionally, the cell stably expresses the endogenous human PAR-1 receptor and the endogenous purinergic receptor P2Y2. The resulting PAR-1 test cell responds to stimulation of the endogenous PAR-1 or P2Y2 receptor with an intracellular release of calcium ions, which can be quantified through the resulting aequorin luminescence with a suitable luminometer (Milligan G, Marshall F, Rees S, Trends in Pharmacological Sciences 1996, 17, 235-237). […]
Test procedure: The cells are plated out two days (48 h) before the test in culture medium (DMEM F12, supplemented with 10% FCS, 2 mM glutamine, 20 mM HEPES, 1.4 mM pyruvate, 0.1 mg/ml gentamycin, 0.15% Na bicarbonate; BioWhittaker Cat. #BE04-687Q; B-4800 Verviers, Belgium) in 384-well microtitre plates and kept in a cell incubator (96% atmospheric humidity, 5% v/v CO2, 37° C.). […] The test substances are then pipetted onto the microtitre plate, and 5 minutes after the transfer of the test substances into the wells of the microtitre plate the plate is transferred into the luminometer, a PAR-1 agonist concentration which corresponds to EC50 is added and the resulting light signal is immediately measured in the luminometer. To distinguish an antagonist substance action from a toxic action, the endogenous purinergic receptor is immediately subsequently activated with agonist (ATP, final concentration 10 μM) and the resulting light signal is measured.

pIC50 | Compound
8.07 | CCOCCc1noc(C2CC(c3ccc(CC)cc3)CN(C(=O)N3CCC(O)CC3)C2)n1 (single isomer, unassigned) [Example 15, {3-[3-(2-Ethoxyethyl)-1,2,4-oxadiazol-5-yl]-5-(4-ethylphenyl)piperidin-1-yl}(4-hydroxypiperidin-1-yl)methanone]
7.47 | O=C(N1CC(O)C1)N1CC(c2ccc(OC(F)(F)F)cc2)CC(c2nc(C3CC3)no2)C1 (single isomer, unassigned) [Example 7, {3-(3-Cyclopropyl-1,2,4-oxadiazol-5-yl)-5-[4-(trifluoromethoxy)phenyl]piperidin-1-yl}(3-hydroxyazetidin-1-yl)methanone]
7.55 | COCCc1noc(C2CC(c3ccc(OC(F)(F)F)cc3)CN(C(=O)N3CC(O)C3)C2)n1 (single isomer, unassigned) [Example 9, (3-Hydroxyazetidin-1-yl){3-[3-(2-methoxyethyl)-1,2,4-oxadiazol-5-yl]-5-[4-(trifluoromethoxy)-phenyl]piperidin-1-yl}methanone]
